Measured values as given in article PMC11313193, “Which Constituents Determine the Antioxidant Activity and Cytotoxicity of Garlic? Role of Organosulfur Compounds and Phenolics” (International Journal of Molecular Sciences, 2024).
Like-named read-outs stand apart in the source and are kept apart here.

What was measured:
[1] = DPPH^● decolorization assay; details: 30 min at ambient temperature in the dark, absorbance at 517 nm
Method: The assay was performed as described in a previous article. Briefly, increasing volumes of solutions of the studied compounds were introduced to wells of a 96-well microplate, each with 200 μL of 0.3 mM DPPH^● solution in methanol. The reaction was allowed to proceed for 30 min at ambient temperature in the dark, and absorbance at 517 nm was read. The absorbance decrease was a measure of the antioxidant activity.
(§1) All assays were standardized with respect to Trolox. The antioxidant activity was calculated in each case as a ratio of the slope of the dependence of absorbance change on the concentration of a studied compound to the slope of the dependence of absorbance change of standard samples concerning Trolox on the concentration of Trolox. Antioxidant activities were expressed in moles of Trolox equivalents (TE)/mol of a studied compound, as described previously.

[2] = tested on: SKOV-3 ovarian cancer cells; assay: Cytotoxicity (Neutral Red), SKOV-3 cells; format: cell-based, human; details: 24 h exposure; for IC50: Homo sapiens, SK-OV-3, Neutral Red, read-out: IC50 SKOV-3; for Concentration at which viability of SKOV-3 cells was lowered: p < 0.05
Method: (§2) The PEO1 cells, SKOV-3 cells, and MRC-5 cells were grown at 37 °C and 5% CO2 in RPMI + GlutaMAX medium, McCoy’s 5A medium, and the DMEM + GlutaMAX medium, respectively. The media were supplemented with 10% heat-inactivated fetal calf serum and penicillin/streptomycin. The cell viability was evaluated using the Trypan Blue exclusion test.
(§3) In the cytotoxicity experiments, cells were grown in wells of sterile 96-well plates. The seeding density was 1 × 10^4 for SKOV-3 and MRC-5 cells and 1.5 × 10^4 for PEO1 cells. The cells were allowed to grow in the incubator for 24 h. Then, the medium was removed and new medium with an examined compound was added. The stock solutions of the compounds studied diluted with the appropriate cell medium were filtered before the addition to the cells using 0.22 µm filters. No more than 0.02% of DMSO was present in the media, and it had no discernible impact on the treated cells. Cells not exposed to any compound served as a control. After another 24 h incubation, the medium was gently aspirated, and the wells were added with 2% sterile Neutral Red solution (100 µL). The plates were then incubated (37 °C, 5% CO2) for one hour. The Neutral Red solution was aspirated, and the wells were washed two times with warm (37 °C) PBS. Subsequently, 100 µL of a permeabilization mixture (water/ethanol/glacial acetic acid, 50/49/1, v/v/v) was introduced to each well. The plates were shaken at 700 rpm for 20 min and absorbance was read at a wavelength of 540 nm against 620 nm.

[3] = ABTS^● decolorization assay; details: 30 min incubation at room temperature, absorbance at 734 nm
Method: A modification of the ABTS^● decolorization assay was employed. Briefly, various volumes of solutions of the studied compounds were introduced to wells of a 96-well microplate, each prefilled 200 μL of ABTS^● solution. […] The drop in absorbance after 30 min incubation at room temperature was read as a measure of the antioxidant activity.
as §1

[4] = Ferric reducing antioxidant power (FRAP) assay; details: 30 min at ambient temperature, pH 3.6, absorbance at 593 nm
Method: The method proposed by Benzie and Strain [91] was employed with a slight modification. Briefly, increasing volumes of solutions of the studied compounds were added to wells of a 96-well microplate prefilled with 200 μL of the working solution composed of 0.3 M acetate buffer, pH 3.6 (10 volumes), 10 mM 2,4,6-tris(2-pyridyl)-s-triazine (TPTZ), in 40 mM HCl (1 volume) and 20 mM FeCl3 (1 volume), was prepared immediately before use. After 30 min incubation at ambient temperature and the absorbance of the Fe^2+-TPTZ complex was read at 593 nm.
as §1

MRC-5 fibroblasts = assay: Cytotoxicity (Neutral Red), MRC-5 fibroblasts; format: cell-based, human; details: for IC50: read-out: IC50 MRC-5; for Concentration at which viability of MRC-5 cells was lowered: p < 0.05
Method: as §2, §3

[5] = tested on: PEO1 ovarian cancer cells; assay: Cytotoxicity (Neutral Red), PEO1 cells; format: cell-based, human; details: for IC50: Homo sapiens, read-out: IC50 PEO1
Method: as §2, §3

[6] = tested on: colon carcinoma HT-29 cells; parameters: method as in PMID 24282361; details: after 48 h exposure; read-out: Concentration decreasing proliferation of HT-29 cells by 50%; cited from earlier work
[7] = tested on: colorectal carcinoma HCT-15 cells; parameters: method as in PMID 24282361; details: after 48 h exposure; read-out: Concentration decreasing proliferation of HCT-15 cells by 50%; cited from earlier work
A375 melanocytes = tested on: A375 melanocytes; parameters: method as in PMID 33178586; details: read-out: Concentration decreasing proliferation of A375 melanocytes by 50%; cited from earlier work
neuroblastoma N2a cells = tested on: neuroblastoma N2a cells; parameters: method as in PMID 24760364; details: after 24 h; read-out: Concentration decreasing proliferation of N2a cells by 50%; cited from earlier work
B16 melanocytes = tested on: B16 melanocytes; parameters: method as in PMID 33178586; details: read-out: Concentration decreasing proliferation of B16 melanocytes by 50%; cited from earlier work
[8] = tested on: microsomal lipid peroxidation; parameters: method as in PMID 16822206; details: cited from earlier work
lung cancer A549 cells = tested on: lung cancer A549 cells; parameters: method as in PMID 16024053; details: 200 μM, 24 h exposure; cited from earlier work
[9] = tested on: lung epithelial BEAS-2B cells; parameters: method as in earlier work; details: 1.5 mM, 24 h exposure; cited from earlier work
[10] = tested on: colorectal cancer HCT-116 cells; parameters: method as in PMID 19202565; details: 400 μM, 24 h exposure; cited from earlier work
[11] = tested on: prostatic carcinoma LNCaP cells; parameters: method as in PMID 16142693; details: 100 μM, 24 h exposure; cited from earlier work
MDA-MB-468 cells = tested on: MDA-MB-468 cells; parameters: method as in earlier work; details: 1.5 mM, 24 h exposure; cited from earlier work
[12] = tested on: cervical epidermoid carcinoma Ca Ski cells; parameters: method as in PMID 19035312; details: 24 h exposure; read-out: Concentration decreasing viability of Ca Ski cells to about 50%; cited from earlier work
[13] = tested on: breast cancer MCF-7 cells; parameters: method as in PMID 18817629; details: 24 h exposure; read-out: Concentration decreasing viability of MCF-7 cells to about 50%; cited from earlier work
[14] = tested on: A2780 human ovarian carcinoma cells; parameters: method as in PMID 24362328; details: prolonged treatment; cited from earlier work
SKOV-3 cells = tested on: SKOV-3 cells; parameters: method as in PMID 16675472; details: cited from earlier work
[15] = tested on: breast cancer MCF-7 cells; parameters: method as in PMID 32286702; details: 1 mM, 24 h exposure; cited from earlier work
[16] = tested on: breast cancer HCC-70 cells; parameters: method as in PMID 32286702; details: 1 mM, 24 h exposure; cited from earlier work
[17] = Homo sapiens, MRC5, 24 h exposure, Neutral Red
[18] = PEO1, 24 h exposure, Neutral Red

C=CCSCC(N)C(=O)O (stereo in doubt) [S-Allyl-D-cysteine]
Antioxidant activity, DPPH^● Decolorization [1]: −0.020 ± 0.004 mol Trolox equivalents (TE)/mol compound
IC50 [2]: 421 µM
Antioxidant activity, ABTS^● Decolorization [3]: 0.070 ± 0.059 mol Trolox equivalents (TE)/mol compound
Antioxidant activity, FRAP [4]: 0.0003 ± 0.0002 mol Trolox equivalents (TE)/mol compound
IC50 (MRC-5 fibroblasts; [17]): 578 µM

C=CCSCC=C [Allyl sulfide]
Antioxidant activity, DPPH^● Decolorization [1]: −0.006 ± 0.011 mol Trolox equivalents (TE)/mol compound
Concentration range with no significant decrease in viability of SKOV-3 cells [2]: up to 100 µM
Concentration at which viability of SKOV-3 cells was lowered [2]: 200 to 500 µM
IC50 [2]: 243 µM
Antioxidant activity, ABTS^● Decolorization [3]: 0.016 ± 0.010 mol Trolox equivalents (TE)/mol compound
Antioxidant activity, FRAP [4]: 0.0026 ± 0.0010 mol Trolox equivalents (TE)/mol compound
Concentration range with no significant decrease in viability of PEO1 cells ([5]; 24 h exposure): up to 100 µM
IC50 [5, 18]: 257 µM
Concentration range with no significant decrease in viability of MRC-5 cells (MRC-5 fibroblasts; 24 h exposure): up to 100 µM
Concentration at which viability of MRC-5 cells was lowered (MRC-5 fibroblasts; 24 h exposure): 200 to 500 µM
IC50 (MRC-5 fibroblasts; [17]): 163 µM

O=C(O)/C=C/c1ccc(O)cc1 [Coumaric acid]
Antioxidant activity, DPPH^● Decolorization [1]: 0.076 ± 0.005 mol Trolox equivalents (TE)/mol compound
Concentration range with no significant decrease in viability of SKOV-3 cells [2]: 0 to 1000 µM
Antioxidant activity, ABTS^● Decolorization [3]: 0.585 ± 0.082 mol Trolox equivalents (TE)/mol compound
Antioxidant activity, FRAP [4]: 0.153 ± 0.003 mol Trolox equivalents (TE)/mol compound
IC50 [6]: 1400 µM
IC50 [7]: 1600 µM
IC50 (A375 melanocytes): 2500 µM
Concentration range with no significant decrease in viability of PEO1 cells ([5]; 24 h exposure): 0 to 1000 µM
IC50 [5, 18]: 1430 µM
IC50 (neuroblastoma N2a cells): 104 µM
IC50 (B16 melanocytes): 2800 µM
Concentration range with no significant decrease in viability of MRC-5 cells (MRC-5 fibroblasts; 24 h exposure): 0 to 1000 µM

C=CCSSCC=C [Diallyl disulfide, diallyl disulfide]
Antioxidant activity, DPPH^● Decolorization [1]: 0.049 ± 0.014 mol Trolox equivalents (TE)/mol compound
Antioxidant activity, ABTS^● Decolorization [3]: 0.013 ± 0.006 mol Trolox equivalents (TE)/mol compound
Antioxidant activity, FRAP [4]: 0.0025 ± 0.0011 mol Trolox equivalents (TE)/mol compound
Termination of lipid peroxidation / prevention of induced microsomal lipid peroxidation [8]: efficient lipid peroxidation terminator
Reduction of survival of A549 cells (lung cancer A549 cells): about 20%
Viability of BEAS-2B cells (reduced to) [9]: about 75%
Survival of HCT-116 cells (decreased to) [10]: ca. 80%
IC50 ([5]; PEO1, 24 h): 265 µM
Reduction of survival of LNCaP cells [11]: about 30%
Viability of MDA-MB-468 cells (reduced to) (MDA-MB-468 cells): about 65%
Concentration at which viability of MRC-5 cells was lowered (MRC-5 fibroblasts; 24 h exposure): 300 µM
IC50 (MRC-5 fibroblasts; Homo sapiens, MRC5, 24 h): 268 µM
IC50 [12]: ~25 µM
IC50 [13]: 400 µM

C=CCSSSCC=C [Diallyl trisulfide, diallyl trisulfide]
Antioxidant activity, DPPH^● Decolorization [1]: 0.005 ± 0.0003 mol Trolox equivalents (TE)/mol compound
Concentration at which viability of SKOV-3 cells was lowered [2]: 50 µM
IC50 [2]: 154 µM
Antioxidant activity, ABTS^● Decolorization [3]: 0.030 ± 0.006 mol Trolox equivalents (TE)/mol compound
Antioxidant activity, FRAP [4]: 0.0022 ± 0.0004 mol Trolox equivalents (TE)/mol compound
Concentration at which viability of PEO1 cells was lowered ([5]; 24 h exposure, p < 0.05): 50 µM
IC50 [5, 18]: 721 µM
Concentration range with no significant decrease in viability of MRC-5 cells (MRC-5 fibroblasts; 24 h exposure): 0 to 50 µM

C=CCSC[C@H](N)C(=O)O [SAC, S-allylcysteine]
Apoptosis of A2780 cells [14]: provoked apoptosis
Migration and invasiveness of A2780 cells [14]: attenuated
Proliferation of A2780 cells [14]: inhibited proliferation
Migration of SKOV-3 cells and their invasiveness (SKOV-3 cells): inhibited
Termination of lipid peroxidation / prevention of induced microsomal lipid peroxidation [8]: ineffective

alliin
Viability of MCF-7 cells (decreased down to) [15]: ca. 75%
Antioxidant activity, DPPH^● Decolorization [1]: 0.004 ± 0.001 mol Trolox equivalents (TE)/mol compound
Antioxidant activity, ABTS^● Decolorization [3]: 0.035 ± 0.012 mol Trolox equivalents (TE)/mol compound
Viability of HCC-70 cells (decreased down to) [16]: ca. 85%
Antioxidant activity, FRAP [4]: 0.0006 ± 0.0007 mol Trolox equivalents (TE)/mol compound
Termination of lipid peroxidation / prevention of induced microsomal lipid peroxidation [8]: ineffective
IC50 (MRC-5 fibroblasts; 24 h exposure, Neutral Red): 321 µM
